Test results from the NIST ThermoML archive (doi:10.1016/j.jct.2003.11.008).

Key:
[1] = 318.15 K; 101.33 kPa; Liquid; Vibrating tube method
[2] = refractive index (Na D-line) (dimensionless); conditions: 318.15 K; 101.33 kPa; Liquid; Standard Abbe refractometry
[3] = xn = mol fraction of the nth substance listed; conditions: 318.15 K, 101.3 kPa, Liquid
[4] = excess molar enthalpy (molar enthalpy of mixing); xn = mol fraction of the nth substance listed; conditions: 318.15 K, 101.3 kPa, Liquid

CCCCCCCCCCCCC [tridecane]
Conditions | mass density [kg/m3] | refractive index
[1] | 738.34 | –
[2] | – | 1.4155

CCCOC(C)=O [propyl ethanoate]
Conditions | mass density [kg/m3] | refractive index
[1] | 859.78 | –
[2] | – | 1.3721

CCCCCCCCCCC [undecane]
Conditions | mass density [kg/m3] | refractive index
[1] | 721.76 | –
[2] | – | 1.4063

CCCCOC(C)=O [butyl ethanoate]
Conditions | mass density [kg/m3] | refractive index
[1] | 855.39 | –
[2] | – | 1.3825

CCCCCCCCCCCCCCCCC [heptadecane]
Conditions | mass density [kg/m3] | refractive index
[1] | 760.8 | –
[2] | – | 1.4268

CCCCCCCCCCCCCCC [pentadecane]
Conditions | mass density [kg/m3] | refractive index
[1] | 750.9 | –
[2] | – | 1.4212

CCCCCOC(C)=O [pentyl ethanoate]
Conditions | mass density [kg/m3] | refractive index
[1] | 852.93 | –
[2] | – | 1.391

CCCCCOC(C)=O [pentyl ethanoate] + CCCCCCC
Conditions | excess molar enthalpy [kcal/mol] | excess molar volume [m3/mol]
[3], x1 = 0.0546 | – | 1.29e-07
[3], x1 = 0.1048 | – | 2.14e-07
[3], x1 = 0.1515 | – | 2.65e-07
[3], x1 = 0.2014 | – | 3.07e-07
[3], x1 = 0.2488 | – | 3.45e-07
[3], x1 = 0.3009 | – | 3.81e-07
[3], x1 = 0.3474 | – | 3.99e-07
[3], x1 = 0.3999 | – | 4.11e-07
[3], x1 = 0.4426 | – | 4.09e-07
[3], x1 = 0.4977 | – | 3.97e-07
[3], x1 = 0.5503 | – | 3.72e-07
[3], x1 = 0.5881 | – | 3.55e-07
[3], x1 = 0.636 | – | 3.23e-07
[3], x1 = 0.7502 | – | 2.51e-07
[3], x1 = 0.8467 | – | 1.71e-07
[3], x1 = 0.9288 | – | 9.4e-08
[4], x1 = 0.0544 | 0.0566 | –
[4], x1 = 0.1187 | 0.104 | –
[4], x1 = 0.1801 | 0.141 | –
[4], x1 = 0.2428 | 0.169 | –
[4], x1 = 0.3049 | 0.192 | –
[4], x1 = 0.3645 | 0.205 | –
[4], x1 = 0.4174 | 0.211 | –
[4], x1 = 0.468 | 0.212 | –
[4], x1 = 0.472 | 0.212 | –
[4], x1 = 0.5161 | 0.209 | –
[4], x1 = 0.5646 | 0.203 | –
[4], x1 = 0.6163 | 0.191 | –
[4], x1 = 0.6696 | 0.176 | –
[4], x1 = 0.7277 | 0.155 | –
[4], x1 = 0.7889 | 0.128 | –
[4], x1 = 0.8473 | 0.0966 | –
[4], x1 = 0.9078 | 0.0615 | –
[4], x1 = 0.9594 | 0.0278 | –

CCCCCCCCCCCCCCC [pentadecane] + CCCCCOC(C)=O
Conditions | excess molar enthalpy [kcal/mol] | excess molar volume [m3/mol]
[3], x2 = 0.097 | – | 2.96e-07
[3], x2 = 0.1823 | – | 5.2e-07
[3], x2 = 0.2485 | – | 6.56e-07
[3], x2 = 0.3223 | – | 7.83e-07
[3], x2 = 0.3863 | – | 8.63e-07
[3], x2 = 0.4452 | – | 9.09e-07
[3], x2 = 0.5075 | – | 9.32e-07
[3], x2 = 0.5553 | – | 9.44e-07
[3], x2 = 0.6017 | – | 9.31e-07
[3], x2 = 0.6519 | – | 9.05e-07
[3], x2 = 0.6946 | – | 8.56e-07
[3], x2 = 0.7436 | – | 7.87e-07
[3], x2 = 0.7672 | – | 7.53e-07
[3], x2 = 0.8482 | – | 5.78e-07
[3], x2 = 0.9107 | – | 3.7e-07
[3], x2 = 0.9606 | – | 1.78e-07
[4], x2 = 0.0764 | 0.0832 | –
[4], x2 = 0.1647 | 0.162 | –
[4], x2 = 0.2553 | 0.227 | –
[4], x2 = 0.3274 | 0.268 | –
[4], x2 = 0.3976 | 0.296 | –
[4], x2 = 0.4632 | 0.312 | –
[4], x2 = 0.5222 | 0.317 | –
[4], x2 = 0.5758 | 0.314 | –
[4], x2 = 0.6183 | 0.305 | –
[4], x2 = 0.6614 | 0.286 | –
[4], x2 = 0.7069 | 0.264 | –
[4], x2 = 0.7552 | 0.235 | –
[4], x2 = 0.8041 | 0.2 | –
[4], x2 = 0.856 | 0.158 | –
[4], x2 = 0.9056 | 0.111 | –
[4], x2 = 0.955 | 0.057 | –

CCCCCCCCCCC [undecane] + CCCOC(C)=O
Conditions | excess molar enthalpy [kcal/mol] | excess molar volume [m3/mol]
[3], x2 = 0.0791 | – | 3.43e-07
[3], x2 = 0.1544 | – | 6e-07
[3], x2 = 0.2306 | – | 8.2e-07
[3], x2 = 0.2908 | – | 9.49e-07
[3], x2 = 0.3479 | – | 1.051e-06
[3], x2 = 0.4046 | – | 1.133e-06
[3], x2 = 0.4573 | – | 1.159e-06
[3], x2 = 0.51 | – | 1.176e-06
[3], x2 = 0.5596 | – | 1.185e-06
[3], x2 = 0.6019 | – | 1.165e-06
[3], x2 = 0.6553 | – | 1.125e-06
[3], x2 = 0.6903 | – | 1.077e-06
[3], x2 = 0.7637 | – | 9.27e-07
[3], x2 = 0.8486 | – | 6.89e-07
[3], x2 = 0.9127 | – | 4.52e-07
[3], x2 = 0.9592 | – | 2.26e-07
[4], x2 = 0.0814 | 0.103 | –
[4], x2 = 0.1501 | 0.173 | –
[4], x2 = 0.2265 | 0.24 | –
[4], x2 = 0.2928 | 0.288 | –
[4], x2 = 0.3534 | 0.32 | –
[4], x2 = 0.4082 | 0.341 | –
[4], x2 = 0.4582 | 0.354 | –
[4], x2 = 0.5031 | 0.358 | –
[4], x2 = 0.5439 | 0.358 | –
[4], x2 = 0.5841 | 0.354 | –
[4], x2 = 0.6226 | 0.345 | –
[4], x2 = 0.6441 | 0.332 | –
[4], x2 = 0.6911 | 0.312 | –
[4], x2 = 0.7407 | 0.285 | –
[4], x2 = 0.7924 | 0.25 | –
[4], x2 = 0.8458 | 0.198 | –
[4], x2 = 0.8971 | 0.141 | –
[4], x2 = 0.9495 | 0.078 | –

CCCCCCCCCCCCC [tridecane] + COC(C)=O
Conditions | excess molar enthalpy [kcal/mol] | excess molar volume [m3/mol]
[3], x2 = 0.1152 | – | 6.95e-07
[3], x2 = 0.195 | – | 1.093e-06
[3], x2 = 0.2573 | – | 1.364e-06
[3], x2 = 0.3086 | – | 1.537e-06
[3], x2 = 0.357 | – | 1.665e-06
[3], x2 = 0.4302 | – | 1.838e-06
[3], x2 = 0.5045 | – | 1.919e-06
[3], x2 = 0.561 | – | 1.946e-06
[3], x2 = 0.6192 | – | 1.917e-06
[3], x2 = 0.666 | – | 1.849e-06
[3], x2 = 0.7125 | – | 1.753e-06
[3], x2 = 0.7495 | – | 1.651e-06
[3], x2 = 0.8399 | – | 1.288e-06
[3], x2 = 0.8997 | – | 9.51e-07
[3], x2 = 0.9425 | – | 6.18e-07
[3], x2 = 0.9745 | – | 2.97e-07
[4], x2 = 0.1268 | 0.197 | –
[4], x2 = 0.2391 | 0.341 | –
[4], x2 = 0.3316 | 0.448 | –
[4], x2 = 0.4097 | 0.517 | –
[4], x2 = 0.4693 | 0.553 | –
[4], x2 = 0.5214 | 0.571 | –
[4], x2 = 0.5635 | 0.578 | –
[4], x2 = 0.5965 | 0.581 | –
[4], x2 = 0.6319 | 0.574 | –
[4], x2 = 0.6706 | 0.559 | –
[4], x2 = 0.7114 | 0.534 | –
[4], x2 = 0.7533 | 0.504 | –
[4], x2 = 0.7939 | 0.461 | –
[4], x2 = 0.8383 | 0.402 | –
[4], x2 = 0.883 | 0.33 | –
[4], x2 = 0.9274 | 0.242 | –
[4], x2 = 0.9665 | 0.133 | –
